What was measured:
[1] = target: T1, Mitogen-activated protein kinase kinase kinase 5 (Homo sapiens) (UniProt Q99683)
T1 sequence (whole entry): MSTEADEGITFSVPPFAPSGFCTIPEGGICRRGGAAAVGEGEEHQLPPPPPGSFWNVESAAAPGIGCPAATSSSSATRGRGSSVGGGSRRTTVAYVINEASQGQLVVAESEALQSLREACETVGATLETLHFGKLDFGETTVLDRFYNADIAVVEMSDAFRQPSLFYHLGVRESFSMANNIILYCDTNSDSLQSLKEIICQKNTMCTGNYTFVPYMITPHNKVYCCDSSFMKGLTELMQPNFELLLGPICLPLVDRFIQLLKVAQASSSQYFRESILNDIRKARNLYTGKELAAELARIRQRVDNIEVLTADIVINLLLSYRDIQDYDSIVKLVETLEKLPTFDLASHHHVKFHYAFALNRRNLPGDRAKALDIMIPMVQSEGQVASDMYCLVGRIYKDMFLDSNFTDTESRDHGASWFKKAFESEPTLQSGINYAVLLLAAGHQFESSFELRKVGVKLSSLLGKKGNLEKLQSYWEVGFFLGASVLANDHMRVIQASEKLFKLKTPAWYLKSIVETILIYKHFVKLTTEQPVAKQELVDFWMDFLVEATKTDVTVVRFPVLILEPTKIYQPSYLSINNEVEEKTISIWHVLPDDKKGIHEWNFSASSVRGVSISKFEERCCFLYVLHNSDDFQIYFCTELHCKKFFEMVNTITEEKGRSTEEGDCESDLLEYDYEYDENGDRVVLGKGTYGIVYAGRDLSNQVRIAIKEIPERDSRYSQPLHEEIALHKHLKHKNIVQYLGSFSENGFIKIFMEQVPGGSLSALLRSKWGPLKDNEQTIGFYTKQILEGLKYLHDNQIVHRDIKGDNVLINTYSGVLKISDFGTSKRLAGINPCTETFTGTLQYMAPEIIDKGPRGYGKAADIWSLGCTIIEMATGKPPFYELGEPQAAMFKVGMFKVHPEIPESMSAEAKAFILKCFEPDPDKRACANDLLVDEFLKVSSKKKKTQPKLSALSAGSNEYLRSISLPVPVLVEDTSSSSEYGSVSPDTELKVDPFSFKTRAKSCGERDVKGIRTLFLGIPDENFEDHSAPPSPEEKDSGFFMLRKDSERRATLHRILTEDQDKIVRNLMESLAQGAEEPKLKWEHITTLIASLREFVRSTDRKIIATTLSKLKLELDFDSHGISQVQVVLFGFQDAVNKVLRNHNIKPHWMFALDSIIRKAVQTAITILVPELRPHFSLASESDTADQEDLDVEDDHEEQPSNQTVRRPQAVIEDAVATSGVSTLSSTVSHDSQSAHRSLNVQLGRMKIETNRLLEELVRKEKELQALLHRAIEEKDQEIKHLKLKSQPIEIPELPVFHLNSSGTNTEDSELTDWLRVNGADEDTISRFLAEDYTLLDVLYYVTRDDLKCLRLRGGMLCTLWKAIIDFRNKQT

[2] = system: Phosphatidylinositol 4,5-bisphosphate 3-kinase catalytic subunit alpha isoform (Homo sapiens), P42336 [M1043I]
Chain of Phosphatidylinositol 4,5-bisphosphate 3-kinase catalytic subunit alpha isoform (Homo sapiens), P42336 [M1043I] (P42336 whole entry M1043I, canonical isoform): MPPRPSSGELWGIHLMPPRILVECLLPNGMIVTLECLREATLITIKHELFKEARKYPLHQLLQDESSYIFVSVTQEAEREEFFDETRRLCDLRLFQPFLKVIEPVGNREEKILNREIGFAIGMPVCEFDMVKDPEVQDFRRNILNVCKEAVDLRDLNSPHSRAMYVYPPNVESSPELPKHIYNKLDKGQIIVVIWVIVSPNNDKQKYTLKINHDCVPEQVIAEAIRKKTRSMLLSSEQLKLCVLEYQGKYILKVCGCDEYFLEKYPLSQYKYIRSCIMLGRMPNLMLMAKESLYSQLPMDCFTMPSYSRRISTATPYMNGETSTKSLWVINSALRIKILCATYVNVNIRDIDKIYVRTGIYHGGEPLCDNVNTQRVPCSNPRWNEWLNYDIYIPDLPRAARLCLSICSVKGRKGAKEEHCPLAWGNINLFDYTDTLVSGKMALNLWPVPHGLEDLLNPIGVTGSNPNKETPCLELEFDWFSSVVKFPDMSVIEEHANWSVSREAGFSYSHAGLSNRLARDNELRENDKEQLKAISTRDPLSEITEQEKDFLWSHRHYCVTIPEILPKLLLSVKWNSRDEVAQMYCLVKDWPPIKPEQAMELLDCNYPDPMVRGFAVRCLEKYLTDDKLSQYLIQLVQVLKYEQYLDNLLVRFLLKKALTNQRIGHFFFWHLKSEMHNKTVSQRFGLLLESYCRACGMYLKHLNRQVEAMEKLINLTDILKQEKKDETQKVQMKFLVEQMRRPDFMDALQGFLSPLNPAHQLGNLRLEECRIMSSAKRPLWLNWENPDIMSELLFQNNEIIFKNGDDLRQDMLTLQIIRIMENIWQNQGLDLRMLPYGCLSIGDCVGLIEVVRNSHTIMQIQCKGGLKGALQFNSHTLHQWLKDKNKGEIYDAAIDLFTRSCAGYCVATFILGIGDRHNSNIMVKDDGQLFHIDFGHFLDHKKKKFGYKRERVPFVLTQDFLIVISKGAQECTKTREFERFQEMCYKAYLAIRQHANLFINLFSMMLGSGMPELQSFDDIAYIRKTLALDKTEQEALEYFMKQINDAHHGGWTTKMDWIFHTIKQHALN

[3] = target: Cyclin-dependent kinase-like 3 (Homo sapiens) (UniProt Q8IVW4)
Chain of Cyclin-dependent kinase-like 3 (Homo sapiens) (Q8IVW4 whole entry, looked up): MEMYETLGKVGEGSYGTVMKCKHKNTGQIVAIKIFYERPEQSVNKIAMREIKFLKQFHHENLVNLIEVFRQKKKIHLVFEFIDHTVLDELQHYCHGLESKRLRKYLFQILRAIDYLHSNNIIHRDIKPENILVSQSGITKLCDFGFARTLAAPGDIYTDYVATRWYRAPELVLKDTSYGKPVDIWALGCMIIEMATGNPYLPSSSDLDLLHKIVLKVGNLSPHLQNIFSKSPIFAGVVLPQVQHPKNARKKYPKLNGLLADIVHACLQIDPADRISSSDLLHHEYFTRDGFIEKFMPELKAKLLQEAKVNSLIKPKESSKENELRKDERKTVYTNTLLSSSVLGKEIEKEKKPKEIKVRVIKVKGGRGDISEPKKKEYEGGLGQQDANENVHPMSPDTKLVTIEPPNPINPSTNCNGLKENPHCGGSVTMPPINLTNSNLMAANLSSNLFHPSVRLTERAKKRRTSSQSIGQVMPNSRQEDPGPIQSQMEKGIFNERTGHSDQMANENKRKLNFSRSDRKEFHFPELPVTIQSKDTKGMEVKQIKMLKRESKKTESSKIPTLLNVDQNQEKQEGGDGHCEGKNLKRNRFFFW

[4] = target: Proto-oncogene tyrosine-protein kinase Src (Homo sapiens) (UniProt P12931)
Chain of Proto-oncogene tyrosine-protein kinase Src (Homo sapiens) (P12931 2-536 limits assumed): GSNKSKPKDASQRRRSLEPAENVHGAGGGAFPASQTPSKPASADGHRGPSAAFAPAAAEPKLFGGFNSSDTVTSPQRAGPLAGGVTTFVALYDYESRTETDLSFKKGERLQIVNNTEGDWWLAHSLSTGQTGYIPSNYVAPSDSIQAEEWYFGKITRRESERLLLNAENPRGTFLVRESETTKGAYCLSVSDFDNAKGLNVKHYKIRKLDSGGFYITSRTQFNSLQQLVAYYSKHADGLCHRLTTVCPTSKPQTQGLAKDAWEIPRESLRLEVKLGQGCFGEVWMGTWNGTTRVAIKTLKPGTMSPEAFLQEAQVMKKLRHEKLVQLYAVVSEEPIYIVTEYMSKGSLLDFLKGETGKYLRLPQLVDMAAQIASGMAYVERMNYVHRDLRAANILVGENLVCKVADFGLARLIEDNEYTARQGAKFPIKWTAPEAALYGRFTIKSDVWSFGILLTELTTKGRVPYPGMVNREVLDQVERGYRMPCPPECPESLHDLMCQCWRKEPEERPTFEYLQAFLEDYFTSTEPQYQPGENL

[5] = target: T2, Homeodomain-interacting protein kinase 4 (Homo sapiens) (UniProt Q8NE63)
T2 sequence (whole entry): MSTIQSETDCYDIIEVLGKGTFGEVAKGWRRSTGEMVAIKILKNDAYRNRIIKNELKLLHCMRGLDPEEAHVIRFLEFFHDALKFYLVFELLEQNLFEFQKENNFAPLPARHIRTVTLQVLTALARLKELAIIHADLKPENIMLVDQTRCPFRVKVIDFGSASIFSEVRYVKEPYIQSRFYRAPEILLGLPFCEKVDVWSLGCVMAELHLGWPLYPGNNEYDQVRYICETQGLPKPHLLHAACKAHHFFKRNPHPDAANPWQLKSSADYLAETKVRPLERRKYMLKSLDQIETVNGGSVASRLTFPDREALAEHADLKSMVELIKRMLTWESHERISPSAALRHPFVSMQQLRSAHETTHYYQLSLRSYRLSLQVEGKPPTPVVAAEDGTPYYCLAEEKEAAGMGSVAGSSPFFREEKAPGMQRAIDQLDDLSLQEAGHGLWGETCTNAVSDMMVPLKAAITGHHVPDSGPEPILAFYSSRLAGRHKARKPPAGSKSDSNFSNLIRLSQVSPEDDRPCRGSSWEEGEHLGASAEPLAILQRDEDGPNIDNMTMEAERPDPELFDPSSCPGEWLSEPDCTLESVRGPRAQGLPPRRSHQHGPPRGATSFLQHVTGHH

[6] = Compound concentration 100.0 nM
[7] = Compound concentration 1000.0 nM

Measured: residual activity

C[C@@H]1CN(c2cc(-c3n[nH]c4ccc(OC5(C)CC5)cc34)ncn2)C[C@H](C)O1 [MLi-2]
inactive: [1]; [6] 88% | [2]; [6] 82% | [3]; [6] 75% | [4]; [6] 81% | [5]; [6] 97%

C[C@@H]1CN(c2cc(-c3nn(C)c4ccc(OC5(C)CC5)cc34)ncn2)C[C@H](C)O1 [MLi-2-NC]
inactive: [1]; [7] 100% | [2]; [7] 96% | [3]; [7] 88% | [4]; [7] 100% | [5]; [7] 79%

From ChEMBL document CHEMBL4507291 (2021)
